Assay results: ChEMBL document CHEMBL5247604, “Discovery of novel hybrids containing clioquinol-1-benzyl-1,2,3,6-tetrahydropyridine as multi-target-directed ligands (MTDLs) against Alzheimer's disease” (Eur J Med Chem, 2022)
Blank lines part the entries; values can stand above or below the compound they belong to. Active and inactive are the calls of the source. The calls are words filed in the database; no cut-off is given here.

Tests used:
[1] = molecular target: Acetylcholinesterase (Electrophorus electricus, UniProt O42275); assay: Inhibition of electric eel AChE using acetylthiocholine iodide as substrate preincubated for 15 mins followed by substrate addition by Ellman's method
Chain of Acetylcholinesterase (O42275 whole entry): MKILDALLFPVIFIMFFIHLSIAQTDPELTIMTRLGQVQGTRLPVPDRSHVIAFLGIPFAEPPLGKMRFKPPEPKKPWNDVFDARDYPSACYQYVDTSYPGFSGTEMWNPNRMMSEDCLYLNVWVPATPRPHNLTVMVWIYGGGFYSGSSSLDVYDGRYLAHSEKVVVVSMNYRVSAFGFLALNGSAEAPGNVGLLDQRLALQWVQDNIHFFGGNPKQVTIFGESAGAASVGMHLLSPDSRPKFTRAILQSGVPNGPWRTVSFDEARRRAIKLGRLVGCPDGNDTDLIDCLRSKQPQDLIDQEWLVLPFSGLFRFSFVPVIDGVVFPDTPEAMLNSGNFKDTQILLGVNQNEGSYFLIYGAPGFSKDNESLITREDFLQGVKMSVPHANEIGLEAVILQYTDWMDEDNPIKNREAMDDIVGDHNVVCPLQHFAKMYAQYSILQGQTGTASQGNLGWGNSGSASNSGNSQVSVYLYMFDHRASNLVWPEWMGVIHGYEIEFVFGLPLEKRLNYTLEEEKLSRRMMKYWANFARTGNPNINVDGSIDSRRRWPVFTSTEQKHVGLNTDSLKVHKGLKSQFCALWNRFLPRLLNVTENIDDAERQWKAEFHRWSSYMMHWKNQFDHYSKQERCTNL

[2] = Metal chelating activity assessed as Cu2+-compound complex formation by measuring red shift in presence of CuSO4 at 40 uM incubated for 30 mins by UV-Visible spectrophotometry
[3] = Metal chelating activity assessed as Zn2+-compound complex formation by measuring red shift in presence of ZnCl2 at 40 uM incubated for 30 mins by UV-Visible spectrophotometry
[4] = Metal chelating activity assessed as Fe3+-compound complex formation by measuring red shift in presence of FeCl3 at 40 uM incubated for 30 mins by UV-Visible spectrophotometry
[5] = Metal chelating activity assessed as Al3+-compound complex formation by measuring blue shift in presence of AlCl3 at 40 uM incubated for 30 mins by UV-Visible spectrophotometry
[6] = Metal chelating activity assessed as Fe2+-compound complex formation by measuring red shift in presence of FeSO4 at 40 uM incubated for 30 mins by UV-Visible spectrophotometry
[7] = molecular target: T1, Amyloid-beta precursor protein (Homo sapiens, UniProt P05067); assay: Inhibition of Cu2+ induced amyloid beta (1 to 42 ) (unknown origin) aggregation incubated for 24 hr by Thioflavin T based fluorometric assay
T1 sequence (P05067 whole entry): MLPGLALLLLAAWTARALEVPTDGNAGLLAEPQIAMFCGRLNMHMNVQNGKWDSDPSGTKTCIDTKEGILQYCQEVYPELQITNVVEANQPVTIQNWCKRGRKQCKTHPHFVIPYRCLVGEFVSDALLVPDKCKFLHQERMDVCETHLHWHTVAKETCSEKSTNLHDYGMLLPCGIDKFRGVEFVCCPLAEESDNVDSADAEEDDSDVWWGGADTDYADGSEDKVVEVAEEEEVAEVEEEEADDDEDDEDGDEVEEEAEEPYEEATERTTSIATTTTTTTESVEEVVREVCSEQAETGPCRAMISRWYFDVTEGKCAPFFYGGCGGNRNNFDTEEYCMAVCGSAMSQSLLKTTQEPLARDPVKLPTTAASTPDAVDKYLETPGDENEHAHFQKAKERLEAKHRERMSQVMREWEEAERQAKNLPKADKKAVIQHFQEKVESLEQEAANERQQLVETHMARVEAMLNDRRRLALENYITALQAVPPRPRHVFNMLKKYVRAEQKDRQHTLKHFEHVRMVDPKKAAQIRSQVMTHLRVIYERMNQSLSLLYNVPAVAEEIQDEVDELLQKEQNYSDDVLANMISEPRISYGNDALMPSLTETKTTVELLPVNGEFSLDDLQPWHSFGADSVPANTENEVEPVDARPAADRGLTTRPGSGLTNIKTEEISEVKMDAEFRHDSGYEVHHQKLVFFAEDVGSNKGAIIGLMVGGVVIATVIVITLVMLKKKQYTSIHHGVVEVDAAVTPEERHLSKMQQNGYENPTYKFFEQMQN

[8] = molecular target: T1, Amyloid-beta precursor protein; assay: Inhibition of Cu2+ induced amyloid beta (1 to 42 ) (unknown origin) aggregation assessed as reduction in fibrils incubated for 24 hr by TEM analysis
[9] = molecular target: T1, Amyloid-beta precursor protein; assay: Inhibition of amyloid beta (1 to 42 ) (unknown origin) self aggregation incubated for 24 hr by Thioflavin T based fluorometric assay

SMILES: Oc1c(Cl)cc(Cl)c2ccc(/C=C/C3=CCN(Cc4ccccc4C(F)(F)F)CC3)nc12
IC50 [1]: 340 nM

SMILES: Oc1c(Cl)cc(Cl)c2ccc(/C=C/C3=CCN(Cc4cccc(F)c4)CC3)nc12
IC50 [1]: 520 nM

SMILES: Oc1c(Cl)cc(Cl)c2ccc(/C=C/C3=CCN(Cc4ccc(F)cc4)CC3)nc12
IC50 [1]: 270 nM

SMILES: Oc1cccc2ccc(/C=C/C3=CCN(Cc4ccccc4Cl)CC3)nc12
IC50 [1]: 1290 nM

SMILES: Oc1c(Cl)cc(Cl)c2ccc(/C=C/C3=CCN(Cc4ccc(Br)cc4)CC3)nc12
IC50 [1]: 640 nM

SMILES: Cc1ccc(CN2CC=C(/C=C/c3ccc4cccc(O)c4n3)CC2)cc1
IC50 [1]: 260 nM

SMILES: Oc1cccc2ccc(/C=C/C3=CCN(Cc4ccccc4Br)CC3)nc12
IC50 [1]: 490 nM

SMILES: Oc1cccc2ccc(/C=C/C3=CCN(Cc4cccc(Cl)c4)CC3)nc12
IC50 [1]: 750 nM

SMILES: Cc1ccccc1CN1CC=C(/C=C/c2ccc3cccc(O)c3n2)CC1
IC50 [1]: 400 nM

SMILES: Oc1c(Cl)cc(Cl)c2ccc(/C=C/C3=CCN(Cc4ccccc4Br)CC3)nc12
IC50 [1]: 540 nM

SMILES: Cc1ccccc1CN1CC=C(/C=C/c2ccc3c(Cl)cc(Cl)c(O)c3n2)CC1
IC50 [1]: 560 nM

SMILES: Cc1ccc(CN2CC=C(/C=C/c3ccc4c(Cl)cc(Cl)c(O)c4n3)CC2)cc1
IC50 [1]: 540 nM

SMILES: Cc1cccc(CN2CC=C(/C=C/c3ccc4c(Cl)cc(Cl)c(O)c4n3)CC2)c1
Activity [2]: Active
Activity [3]: inactive
Activity [4]: inactive
IC50 [1]: 250 nM
Activity [5]: Active
Activity [6]: Active

SMILES: Oc1c(Cl)cc(Cl)c2ccc(/C=C/C3=CCN(Cc4ccc(C(F)(F)F)cc4)CC3)nc12
IC50 [1]: 280 nM

SMILES: Oc1cccc2ccc(/C=C/C3=CCN(Cc4cccc(C(F)(F)F)c4)CC3)nc12
IC50 [1]: 550 nM

SMILES: Oc1cccc2ccc(/C=C/C3=CCN(Cc4ccccc4)CC3)nc12
IC50 [1]: 1110 nM

SMILES: Oc1c(Cl)cc(Cl)c2ccc(/C=C/C3=CCN(Cc4cccc(C(F)(F)F)c4)CC3)nc12
IC50 [1]: 700 nM

SMILES: Oc1cccc2ccc(/C=C/C3=CCN(Cc4ccc(F)cc4)CC3)nc12
IC50 [1]: 1660 nM

SMILES: Oc1c(Cl)cc(Cl)c2ccc(/C=C/C3=CCN(Cc4ccccc4)CC3)nc12
IC50 [1]: 2310 nM

SMILES: Oc1c(Cl)cc(Cl)c2ccc(/C=C/C3=CCN(Cc4ccccc4Cl)CC3)nc12
IC50 [1]: 410 nM

SMILES: Oc1c(Cl)cc(Cl)c2ccc(/C=C/C3=CCN(Cc4cccc(Cl)c4)CC3)nc12
IC50 [1]: 330 nM

SMILES: Oc1cccc2ccc(/C=C/C3=CCN(Cc4ccccc4F)CC3)nc12
IC50 [1]: 570 nM

SMILES: Cc1cccc(CN2CC=C(/C=C/c3ccc4cccc(O)c4n3)CC2)c1
IC50 [1]: 430 nM

SMILES: Oc1cccc2ccc(/C=C/C3=CCN(Cc4cccc(F)c4)CC3)nc12
IC50 [1]: 720 nM

SMILES: Oc1c(Cl)cc(Cl)c2ccc(/C=C/C3=CCN(Cc4cccc(Br)c4)CC3)nc12
IC50 [1]: 320 nM

SMILES: Oc1cccc2ccc(/C=C/C3=CCN(Cc4ccc(Br)cc4)CC3)nc12
IC50 [1]: 260 nM

SMILES: Oc1c(Cl)cc(Cl)c2ccc(/C=C/C3=CCN(Cc4ccccc4F)CC3)nc12
IC50 [1]: 290 nM

SMILES: Oc1c(Cl)cc(Cl)c2ccc(/C=C/C3=CCN(Cc4ccc(Cl)cc4)CC3)nc12
IC50 [1]: 620 nM

SMILES: Oc1cccc2ccc(/C=C/C3=CCN(Cc4ccc(Cl)cc4)CC3)nc12
IC50 [1]: 3050 nM

SMILES: Oc1cccc2ccc(/C=C/C3=CCN(Cc4cccc(Br)c4)CC3)nc12
IC50 [1]: 1530 nM

SMILES: Oc1cccc2ccc(/C=C/C3=CCN(Cc4ccc(C(F)(F)F)cc4)CC3)nc12
IC50 [1]: 320 nM

inhibition [7]: Active
inhibition [8]: Active
inhibition [9]: inactive
SMILES: Oc1c(I)cc(Cl)c2cccnc12
